Measured values published in US20230183703A1, “COMPOSITIONS AND METHODS FOR TREATING AND DETECTING CORONAVIRUS INFECTION” (HOWARD UNIVERSITY, priority 2020, published 2023).

Test system: SARS-CoV-2
Assay type: cell-based
Conditions: result in words

| Substance | inhibition of SARS-CoV-2 proliferation in Vero-76 cells |
| --- | --- |
| A25: 5′-GGAGAATGACA(25)-3′, SEQ ID NO: 1: 10-nucleotide linker attached to 5′-end of a 25-mer poly(dA) sequence (DNA GGAGAATGACAAAAAAAAAAAAAAAAAAAAAAAAA; further chemistry not given here) | markedly inhibited |
| A25L: SEQ ID NO: 2: 10-nucleotide linker GGAGAATGAC sandwiched between two copies of a 25-mer poly(dA) sequence (DNA AAAAAAAAAAAAAAAAAAAAAAAAAGGAGAATGACAAAAAAAAAAAAAAAAAAAAAAAAA; further chemistry not given here) | markedly inhibited |
